Test results as given in patent US20080064727A1, “Crystalline forms of tiagabine hydrochloride” (Cephalon, Inc., priority 2006, published 2008).
“Also recorded” adds a separate entry of the source. Each block holds one compound with its values, some of them ahead of it.

Columns and labels:
Type in all cases: physicochemical
[1] = Solid-form stability on drying under vacuum, resulting form by XRPD analysis
Experimental: (§1) X-ray powder diffraction (XRPD) analyses were performed using the following instruments & methods:
(§2) A. Shimadzu XRD-6000 X-ray powder diffractometer using Cu Kα radiation. The instrument was equipped with a long fine focus X-ray tube. The tube voltage and amperage were set to 40 kV and 40 mA, respectively. The divergence and scattering slits were set at 1° and the receiving slit was set at 0.15 mm. Diffracted radiation was detected by a NaI scintillation detector. A θ-2θ continuous scan at 3°/min (0.4 sec/0.02° step) from 2.5 to 40° 2θ was used. A silicon standard was analyzed to check the instrument alignment. Data were collected and analyzed using XRD-6000 v. 4.1. Samples were prepared for analysis by placing them in a sample holder.
(§3) B. Inel XRG-3000 diffractometer, equipped with a CPS (Curved Position Sensitive) detector with a 2 Orange of 120°. Real time data were collected using Cu—Kα radiation starting at approximately 4° 2θ at a resolution of 0.03° 2θ. The tube voltage and amperage were set to 40 kV and 30 mA, respectively. The monochromator slit was set at 5 mm by 80 μm or 160 μm. […] Samples were prepared for analysis by packing them into thin-walled glass capillaries. Each capillary was mounted onto a goniometer head that is motorized to permit spinning of the capillary during data acquisition. The acquisition time was between 5 to 10 min. Instrument calibration was performed using a silicon reference standard.
(§4) D. Bruker D-8 Discover diffractometer and Bruker's General Area Diffraction Detection System (GADDS, v. 4.1.20). An incident beam of Cu—Kα radiation was produced using a fine-focus tube (40 kV, 40 mA), a Gobel mirror, and a 0.5 mm double-pinhole collimator. The samples were positioned for analysis by securing the well plate to a translation stage and moving each sample to intersect the incident beam. Alternatively, the sample was packed between 3-micron thick films to form a portable disc-shaped specimen, and the specimen was loaded in a holder secured to a translation stage. The samples were analyzed using a transmission geometry. The incident beam was scanned and rastered over the sample during the analysis to optimize orientation statistics. A beam-stop was used to minimize air scatter from the incident beam at low angles. Diffraction patterns were collected using a Hi-Star area detector located 15 cm from the sample and processed using GADDS. The intensity in the GADDS image of the diffraction pattern was integrated using a step size of 0.04° 2θ. The integrated patterns display diffraction intensity as a function of 2θ. Prior to the analysis a silicon standard was analyzed to verify the Si 111 peak position.
(§5) E. Peak Picking Methods. Any XRPD files generated from Inel or Bruker XRPD instruments were converted to Shimadzu .raw file using File Monkey version 3.0.4. The Shimadzu .raw file was processed by the Shimadzu XRD-6000 version 4.1 software to automatically find peak positions. The “peak position” means the maximum intensity of a peaked intensity profile. The following processes were used with the Shimadzu XRD-6000 “Basic Process” version 2.6 algorithm: • Smoothing was done on all patterns. • The background was subtracted to find the net, relative intensity of the peaks. • A peak from Cu K alpha2 (1.5444 Å) wavelength was subtracted from the peak generated by Cu K alpha1 (1.5406 Å) peak at 50% intensity for all patterns. Differential Scanning Calorimetry

[2] = Solid-form stability on heating, resulting form by XRPD analysis
Experimental: as §1, §2, §3
C. Shimadzu XRD-6000 X-ray powder diffractometer equipped with an Anton Paar HTK 1200 high temperature stage (Variable-temperature XRPD (VT-XRPD)). The sample was packed in a ceramic holder and analyzed form 2.5 to 40° 2θ at 3°/min (0.4 sec/0.02° step). The heating rate was 10° C./min. A silicon standard was analyzed to check the instrument alignment. Temperature calibration was performed using vanillin and sulfapyridine USP melting point standards. Data were collected and analyzed using XPD-6000 v.4.1. The system was kept under a purge of nitrogen during the analysis.
as §4
E. Peak Picking Methods. Any XRPD files generated from Inel or Bruker XRPD instruments were converted to Shimadzu .raw file using File Monkey version 3.0.4. The Shimadzu .raw file was processed by the Shimadzu XRD-6000 version 4.1 software to automatically find peak positions. The “peak position” means the maximum intensity of a peaked intensity profile. The following processes were used with the Shimadzu XRD-6000 “Basic Process” version 2.6 algorithm: • Smoothing was done on all patterns. • The background was subtracted to find the net, relative intensity of the peaks. • A peak from Cu K alpha2 (1.5444 Å) wavelength was subtracted from the peak generated by Cu K alpha1 (1.5406 Å) peak at 50% intensity for all patterns. […]

[3] = Solid-form stability on storage, resulting form by XRPD analysis; conditions: for Form converted to during storage: during storage (summary statement, conditions not given); for Form converted to during storage / Form indicated by XRPD analysis after storage: hydrochloride
Experimental: as §1, §2, §3, §4, §5

[4] = dried under vacuum at room temperature for less than one day, hydrochloride
[5] = under vacuum at room temperature for about four (4) days, hydrochloride
[6] = stored five (5) days, about 40° C., about 89% relative humidity
[7] = stored five (5) days, about 60° C., about 75% relative humidity
[8] = dried about 14 hours under vacuum at about 65° C., hydrochloride
[9] = stored five (5) days, 2-8° C., about 96% relative humidity
[10] = stored two months, ambient temperature and humidity

Form indicated by XRPD analysis after drying [1, 4]: Form Y
Compound: Cc1ccsc1C(=CCCN1CCC[C@@H](C(=O)O)C1)c1sccc1C.Cl [Form Y, tiagabine hydrochloride]
Form indicated by XRPD analysis after heating ([2]; heated at 100-110° C. for about 10 minutes): Form B containing a minor amount of Form Q

Form indicated by XRPD analysis after drying ([1]; dried about 15 hours under vacuum at 40-95° C.): a mixture of tiagabine HCl Forms P and B
Form indicated by XRPD analysis after drying [1, 5]: a mixture of tiagabine HCl Forms P and B
Compound: Cc1ccsc1C(=CCCN1CCC[C@@H](C(=O)O)C1)c1sccc1C.Cl [Form P containing a minor amount of Form B] [tiagabine hydrochloride]

Form converted to during storage [3]: Form B
Form indicated by XRPD analysis after storage [3, 6]: tiagabine HCl Form B
Form indicated by XRPD analysis after storage [3, 7]: tiagabine HCl Form B
Compound: Cc1ccsc1C(=CCCN1CCC[C@@H](C(=O)O)C1)c1sccc1C.Cl [Form P, tiagabine hydrochloride]

Form indicated by XRPD analysis after heating ([2]; heated at 90-95° C. for about 10 minutes, listed as From Z, hydrochloride): a mixture of Forms B and Q
Compound: Cc1ccsc1C(=CCCN1CCC[C@@H](C(=O)O)C1)c1sccc1C.Cl [Form Z, tiagabine hydrochloride]

Form indicated by XRPD analysis after drying [1, 8]: a mixture of tiagabine HCl Forms S and B
Compound: Cc1ccsc1C(=CCCN1CCC[C@@H](C(=O)O)C1)c1sccc1C.Cl [Form S mixed with Form B, tiagabine hydrochloride]

Form indicated by XRPD analysis after storage [3, 9]: a mixture of tiagabine HCl Forms B and Q
Form indicated by XRPD analysis after storage [3, 10]: a mixture of tiagabine HCl Forms Q and B
Compound: Cc1ccsc1C(=CCCN1CCC[C@@H](C(=O)O)C1)c1sccc1C.Cl [Form D, tiagabine hydrochloride]
Form converted to during storage [3]: tiagabine hydrochloride Form B, sometimes mixed with tiagabine hydrochloride Form Q
Form indicated by XRPD analysis after drying [1, 4]: a mixture of Form D containing a minor amount of Form A

Form indicated by XRPD analysis after storage [3, 7]: tiagabine HCl Form B and a trace of Q
Compound: Cc1ccsc1C(=CCCN1CCC[C@@H](C(=O)O)C1)c1sccc1C.Cl [Form D containing a minor amount of Form B] [tiagabine hydrochloride]
Form indicated by XRPD analysis after storage [3, 6]: a mixture of tiagabine HCl Form B and a trace of Q

Form indicated by XRPD analysis after drying [1, 5]: Form Q
Compound: Cc1ccsc1C(=CCCN1CCC[C@@H](C(=O)O)C1)c1sccc1C.Cl [Form H, tiagabine hydrochloride]
Form indicated by XRPD analysis after heating ([2]; heated at 90-95° C. for about 10 minutes, hydrochloride): Form Q containing a minor amount of Form B

Form indicated by XRPD analysis after storage [3, 10]: a mixture of tiagabine HCl Forms B and Q
Compound: Cc1ccsc1C(=CCCN1CCC[C@@H](C(=O)O)C1)c1sccc1C.Cl [Form M, tiagabine hydrochloride]
Form converted to during storage [3]: a mixture of tiagabine hydrochloride Forms B and Q

Form indicated by XRPD analysis after drying [1, 5]: tiagabine HCl Form C
Form indicated by XRPD analysis after heating ([2]; heated to about 115-120° C. for approximately 10 minutes): tiagabine HCl Form B
Compound: Cc1ccsc1C(=CCCN1CCC[C@@H](C(=O)O)C1)c1sccc1C.Cl [Form T, tiagabine hydrochloride]

Form indicated by XRPD analysis after storage [3, 9]: a mixture of tiagabine HCl Forms P and B
Form indicated by XRPD analysis after drying [1, 8]: a mixture of tiagabine Form P and B
Compound: Cc1ccsc1C(=CCCN1CCC[C@@H](C(=O)O)C1)c1sccc1C.Cl [Form P containing Form B, tiagabine hydrochloride]

Compound: Cc1ccsc1C(=CCCN1CCC[C@@H](C(=O)O)C1)c1sccc1C.Cl [Form I, tiagabine hydrochloride]
Form converted to during storage [3]: a mixture of tiagabine hydrochloride Forms S and B
Form indicated by XRPD analysis after storage [3, 10]: a mixture of tiagabine HCl Forms S and B; also recorded: a mixture of Form S+Form B

Form indicated by XRPD analysis after storage [3, 10]: a mixture of tiagabine HCl Forms Q and B
Compound: Cc1ccsc1C(=CCCN1CCC[C@@H](C(=O)O)C1)c1sccc1C.Cl [Form J, tiagabine hydrochloride]
Form converted to during storage [3]: a mixture of tiagabine hydrochloride Forms Q and B

Form indicated by XRPD analysis after drying [1, 4]: Form AA
Compound: Cc1ccsc1C(=CCCN1CCC[C@@H](C(=O)O)C1)c1sccc1C.Cl [Form AA, tiagabine hydrochloride]

Time stable when stored ([3]; ambient temperature and humidity): 2 months
Form indicated by XRPD analysis after storage [3, 10]: tiagabine HCl Form C
Compound: Cc1ccsc1C(=CCCN1CCC[C@@H](C(=O)O)C1)c1sccc1C.Cl [Form C, tiagabine hydrochloride]
